A word on the IC50: it is the concentration needed to halve the response being measured. A low value points to higher potency. In general, ED50 refers to the dose that gives a 50% effect, or the effect in half of the subjects. What is called melting point is the temperature, or range, at which the solid turns liquid.

Data set [1] has as its system Human Cartilage explants, IL-1β-induced nitric oxide synthase (nitrite production). In words: Human cartilage explant assay (nitrite production, IL-1β induced). The settings on record: inhibition of nitrite production, IL-1β stimulated explants. Type of data set: cell-based. As to the method: Bone pieces are rinsed twice with Dulbecco's Phosphate Buffered Saline (GibcoBRL) and once with Dulbecco's Modified Eagles Medium (GibcoBRL) and placed into a petri dish with phenol red free Minimum Essential Medium (MEM) (GibcoBRL). Cartilage was cut into small explants of approximately 15-45 mg in weight and one or two explants per well are placed into either 96 or 48 well culture plates with 200-500 μL of culture media per well. The culture media was either a custom modification of Minimum Essential Medium(Eagle) with Earle's salts (GibcoBRL) prepared without L-Arginine, without L-Glutamine and without phenol red or a custom modification of serumless Neuman and Tytell (GibcoBRL) medium prepared without L-arginine, without insulin, without ascorbic acid, without L-glutamine and without phenol red. Both are supplemented before use with 100 μM L-Arginine (Sigma), 2 mM L-glutamine, 1X HL-1 supplement (BioWhittaker), […] ascorbic acid (Sigma) and 150 pg/ml recombinant human IL-1β (RD Systems) to induce nitric oxide synthase. Compounds are then added in 10 μL aliquots and the explants incubated at 37° C. with 5% CO2 for 18-24 hours. The day old supernatant is then discarded and replaced with fresh culture media containing recombinant human IL-1β and compound and incubated for another 20-24 hours. […] All samples are done in quadruplicate. Unstimulated controls are cultured in media in the absence of recombinant human IL-1β. IC50 values (Table I)are determined from plotting the percent inhibition of nitrite production at six different concentrations of inhibitor.

The subject of data set [2] is LPS-induced increase in plasma nitrite/nitrate levels. In words: Endotoxin (LPS)-treated rats, plasma nitrite/nitrate levels. Type of data set: in vivo, rat. Conditions: oral administration, plasma nitrite/nitrate 5 hours post-treatment. As to the method:
Plasma nitrite/nitrate levels can be determined 5 hours post-treatment.

Another data set relates to retinal ganglion cells. The settings on record: rats with chronic moderately elevated IOP, cited from earlier work.
Where [3] appears, read: Rattus norvegicus, read-out: ED50.

The structures appear in SMILES notation. Structures can show the parent of a compound that is named as a salt. Where two headings read alike, the source gives them in different places.

In the case of `CC(=N)NCC(F)=CCC[C@H](N)C(=O)O` (mixture of isomers) [Example B, (2S,5E/Z)-2-amino-6-fluoro-7-[(1-iminoethyl)amino]-5-heptenoic acid, dihydrochloride], in data set [1] (Homo sapiens), inhibition was half-maximal at 0.2 µM (IC50).

`CC(=N)NC/C(F)=C\CC[C@H](N)C(=O)O` [Example A, (2S,5E)-2-amino-6-fluoro-7-[(1-iminoethyl)amino]-5-heptenoic acid, dihydrochloride, monohydrate]: the median effective dose (ED50) in data set [2] (setting [3]) was below 0.1 mg/kg; in data set [2] (dihydrochloride, monohydrate), below 0.1 mg/kg. In data set [1] (Homo sapiens), this compound displayed an IC50 of 0.1 µM.

In the case of `CC(=N)NC/C(F)=C/CC[C@H](N)C(=O)O` [Example D, (2S,5Z)-2-amino-6-fluoro-7-[(1-iminoethyl)amino]-5-heptenoic acid, trihydrochloride, dihydrate], the ED50 in data set [2] (setting [3]) was above 10 mg/kg. This compound also gave an IC50 in data set [1] (Homo sapiens) of 2.5 µM.

Compound `CC(=NO)NC/C(F)=C\CC[C@H](N)C(=O)O` [Example G, (2S,5E)-2-amino-6-fluoro-7-[(1-hydroximinoethyl)amino]-5-heptenoic acid] had a melting point of 198 to 200 °C. Moreover, the 50% effective dose (ED50) in data set [2] (setting [3]) is below 0.1 mg/kg.

As for `CC(=N)NC/C(F)=C\CC[C@H](N)C(=O)Nc1nnn[nH]1` [Example H, (2S,5E)-2-amino-6-fluoro-7-[(1-iminoethyl)amino]-N-(1H-tetrazol-5-yl) 5-heptenamide, dihydrochloride], the 50% effective dose (ED50) in data set [2] (setting [3]) was below 0.3 mg/kg.

Regarding `CC(=N)NC/C(F)=C\CC[C@](C)(N)C(=O)O.Cl.Cl` [Example HH, (2S,5E)-2-amino-2-methyl-6-fluoro-7-[(1-iminoethyl)amino]-5-heptenoic acid, dihydrochloride], the median effective dose (ED50) in data set [2] (setting [3]) stood at 0.4 mg/kg. For the same compound, the half-inhibitory concentration (IC50) in data set [1] (Homo sapiens) turned out to be 0.4 µM.

`COC[C@](N)(CSCCNC(C)=N)C(=O)O` [Example J, 2-[[[2-[(1-Iminoethyl)amino]ethyl]thio]methyl]-O-methyl-D-serine, dihydrochloride] came in with an IC50 in data set [1] of 8.2 µM. That is a single-digit micromolar value.

Take `CC(=N)NC/C=C\CC[C@](C)(N)C(=O)O.Cl.Cl` [Example LL, (2S,5Z)-2-amino-2-methyl-7-[(1-iminoethyl)amino]-5-heptenoic acid, dihydrochloride]: the ED50 in data set [2] (setting [3]) was 0.3 mg/kg. The IC50 in data set [1] (Homo sapiens) came out at 0.8 µM.

Turning to `N=C1CCCC[C@H](CCCC[C@@H](N)C(=O)O)N1` [Example V, ([…]R,2S)-[…]-aminohexahydro-7-imino-1H-azepine-2-hexanoic acid, trihydrate hydrochloride], the 50% effective dose (ED50) in data set [2] (setting [3]) is below 3 mg/kg. In data set [1] (Homo sapiens), the half-inhibitory concentration (IC50) is below 10 µM.

Consider `N=C1CCCC[C@@H](CCCC[C@H](N)C(=O)O)N1` [Example W, ([…]S,2R)-[…]-aminohexahydro-7-imino-1H-azepine-2-hexanoic acid, trihydrate hydrochloride], for which the ED50 in data set [2] (setting [3]) is above 10 mg/kg. Besides, the IC50 in data set [1] (Homo sapiens) is above 30 µM.

Compound `N=C1CCCC[C@H](CCCC[C@H](N)C(=O)O)N1` [Example X, ([…]S,2S)-[…]-aminohexahydro-7-imino-1H-azepine-2-hexanoic acid, trihydrate hydrochloride] registered an IC50 in data set [1] (Homo sapiens) below 10 µM.

As for `N=C1CCCC[C@H](CCCC[C@@H](N)C(=O)O)N1` [Example Y, ([…]R,2S)-[…]-aminohexahydro-7-imino-1H-azepine-2-hexanoic acid, trihydrate hydrochloride], in data set [1], the IC50 is below 10 µM.

As for `N=C(N)NN` [aminoguanidine], the “neuroprotection / loss of retinal ganglion cells” value in the data set on retinal ganglion cells is recorded as “blocks loss of retinal ganglion cells”; in the data set on retinal ganglion cells (listed as Aminoguanidine), “provide neuroprotection to retinal ganglion cells”.

Source of the values: patent US20030119826A1, “Neuroprotective treatment methods using selective iNOS inhibitors” (Pharmacia Corporation, priority 2001, published 2003).
